Experimental data published in PMC6443962, “Anti-nociceptive and Anti-inflammatory Activities of Asparacosin A Involve Selective Cyclooxygenase 2 and Inflammatory Cytokines Inhibition: An in-vitro, in-vivo, and in-silico Approach” (Frontiers in Immunology, 2019).

Experiments:
[1] = molecular target: T1, COX-2 (cyclooxygenase 2, human recombinant) (Homo sapiens, UniProt P35354); assay: colorimetric COX inhibitor screening assay (Cayman kit […]); type: biochemical
T1 construct: gene PTGS2
T1 sequence (P35354 18-604): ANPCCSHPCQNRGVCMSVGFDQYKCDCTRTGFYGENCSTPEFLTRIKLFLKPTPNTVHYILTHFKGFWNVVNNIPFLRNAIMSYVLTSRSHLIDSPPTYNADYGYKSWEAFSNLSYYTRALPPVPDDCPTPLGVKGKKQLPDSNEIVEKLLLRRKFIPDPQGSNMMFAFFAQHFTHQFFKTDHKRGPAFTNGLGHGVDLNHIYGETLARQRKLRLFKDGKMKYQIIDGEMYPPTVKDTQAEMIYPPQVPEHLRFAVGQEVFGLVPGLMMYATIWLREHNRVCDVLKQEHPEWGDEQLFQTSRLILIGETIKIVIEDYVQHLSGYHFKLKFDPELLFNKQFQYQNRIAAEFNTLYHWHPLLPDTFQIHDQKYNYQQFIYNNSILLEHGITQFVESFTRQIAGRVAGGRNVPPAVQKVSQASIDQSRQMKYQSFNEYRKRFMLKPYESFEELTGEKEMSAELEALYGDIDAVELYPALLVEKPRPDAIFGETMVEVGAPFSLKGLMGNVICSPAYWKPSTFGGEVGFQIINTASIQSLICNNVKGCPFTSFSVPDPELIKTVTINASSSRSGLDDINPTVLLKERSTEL

[2] = molecular target: T2, COX-1 (cyclooxygenase 1, ovine) (Ovis aries, UniProt P05979); assay: as above; type: biochemical
T2 construct: gene PTGS1
T2 sequence (P05979 25-600): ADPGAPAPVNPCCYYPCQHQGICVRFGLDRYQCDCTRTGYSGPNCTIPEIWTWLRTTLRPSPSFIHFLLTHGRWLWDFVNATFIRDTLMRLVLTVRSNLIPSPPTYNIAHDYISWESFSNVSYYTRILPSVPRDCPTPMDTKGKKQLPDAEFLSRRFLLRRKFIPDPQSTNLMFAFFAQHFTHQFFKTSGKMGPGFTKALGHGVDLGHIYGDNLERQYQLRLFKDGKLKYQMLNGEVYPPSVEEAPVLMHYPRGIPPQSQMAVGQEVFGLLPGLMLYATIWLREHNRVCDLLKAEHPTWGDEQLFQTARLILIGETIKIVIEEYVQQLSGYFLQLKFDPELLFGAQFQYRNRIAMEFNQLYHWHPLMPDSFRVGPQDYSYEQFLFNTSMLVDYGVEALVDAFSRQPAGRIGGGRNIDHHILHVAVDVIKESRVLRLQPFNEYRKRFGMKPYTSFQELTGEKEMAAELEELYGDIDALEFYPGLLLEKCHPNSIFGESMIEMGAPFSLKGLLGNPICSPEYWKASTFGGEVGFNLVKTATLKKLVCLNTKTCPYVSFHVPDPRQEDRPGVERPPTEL

Compound: C[C@@H]1CC[C@@]2(OC1)O[C@H]1C[C@H]3[C@@H]4CCC5=CC(=O)CC[C@]5(C)[C@H]4C[C@@H](O)[C@]3(C)[C@@]1(O)[C@@H]2C [Asparacosin A]
- IC50 [1]: 0.6 µM
- IC50 [2]: 24.2 µM
